Measurements from ChEMBL document CHEMBL1201862, “PubChem BioAssay data set” (2004).
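Each compound was tested at five concentrations against cells in 96-well plates for 48 hours. The concentration for 50% growth inhibition is given as GI50.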 The source made the active and inactive calls. No stated cut-off is given here; in the data, active = GI50 up to about 1.1 µM and inactive = higher.

Columns and labels:
Experiment in all cases: NCI tumour cell line growth inhibition, 48 h
PC-3 = test system: PC-3
SF-295 = test system: SF-295
U-251 = test system: U-251
SR = test system: SR
RPMI-8226 = test system: RPMI-8226
SNB-75 = test system: SNB-75
NCI-H522 = test system: NCI-H522
MCF7 = test system: MCF7
OVCAR-5 = test system: OVCAR-5
NCI-H226 = test system: NCI-H226
Hs-578T = test system: Hs-578T
ACHN = test system: ACHN
NCI-H460 = test system: NCI-H460
OVCAR-3 = test system: OVCAR-3
IGROV-1 = test system: IGROV-1
RXF 393 = test system: RXF 393
MDA-MB-231 = test system: MDA-MB-231
HT-29 = test system: HT-29
CCRF-CEM = test system: CCRF-CEM

Structure (SMILES) | GI50 (PC-3) | GI50 (SF-295) | GI50 (U-251) | GI50 (SR) | GI50 (RPMI-8226) | GI50 (SNB-75) | GI50 (NCI-H522) | GI50 (MCF7) | GI50 (OVCAR-5) | GI50 (NCI-H226) | GI50 (Hs-578T) | GI50 (ACHN) | GI50 (NCI-H460) | GI50 (OVCAR-3) | GI50 (IGROV-1) | GI50 (RXF 393) | GI50 (MDA-MB-231) | GI50 (HT-29) | GI50 (CCRF-CEM)
NC1=NC(c2ccc(Cl)cc2)N(c2ccc(S(N)(=O)=O)cc2)C(N)=N1 (stereo not given) | > 100 µM (inactive) | > 100 µM (inactive) | > 100 µM (inactive) | > 100 µM (inactive) | > 100 µM (inactive) | > 100 µM (inactive) | > 100 µM (inactive) | > 100 µM (inactive) | > 100 µM (inactive) | > 100 µM (inactive) | > 100 µM (inactive) | > 100 µM (inactive) | > 100 µM (inactive) | > 100 µM (inactive) | > 100 µM (inactive) | > 100 µM (inactive) | > 100 µM (inactive) | > 100 µM (inactive) | > 100 µM (inactive)
C(CCc1nnc2c(n1)CCCC2)Cc1nnc2c(n1)CCCC2 | 85.7 µM (inactive) | > 100 µM (inactive) | > 100 µM (inactive) | 88.7 µM (inactive) | > 100 µM (inactive) | > 100 µM (inactive) | > 100 µM (inactive) | > 100 µM (inactive) | > 100 µM (inactive) | > 100 µM (inactive) | > 100 µM (inactive) | > 100 µM (inactive) | > 100 µM (inactive) | > 100 µM (inactive) | > 100 µM (inactive) | > 100 µM (inactive) | > 100 µM (inactive) | > 100 µM (inactive) | > 100 µM (inactive)
C(=N\c1cnc2ccccc2c1)/c1ccc2ccccc2n1 | > 100 µM (inactive) | > 100 µM (inactive) | 67.5 µM (inactive) | 24 µM (inactive) | 29.2 µM (inactive) | > 100 µM (inactive) | > 100 µM (inactive) | 43 µM (inactive) | > 100 µM (inactive) | > 100 µM (inactive) | > 100 µM (inactive) | > 100 µM (inactive) | > 100 µM (inactive) | 27.7 µM (inactive) | > 100 µM (inactive) | > 100 µM (inactive) | > 100 µM (inactive) | > 100 µM (inactive) | 23.8 µM (inactive)
COC(C)(C)[C@@H](O)[C@H]1C[C@H](C)[C@@]2(CC[C@]3(C)[C@@H]2CC[C@@H]2[C@@]4(C)CC[C@@H](OC(C)=O)C(C)(C)[C@@H]4C[C@@H](OC4OC(COC(C)=O)C(O)C(O)C4O)[C@]23C)O1 (stereo not given in full) | 2.63 µM (inactive) | 4.51 µM (inactive) | 5.7 µM (inactive) | 2.52 µM (inactive) | 2.42 µM (inactive) | 4.46 µM (inactive) | 4.04 µM (inactive) | 2.86 µM (inactive) | 2.54 µM (inactive) | 4.75 µM (inactive) | 6.76 µM (inactive) | 5.86 µM (inactive) | 4.37 µM (inactive) | 4.26 µM (inactive) | 4.39 µM (inactive) | 4.1 µM (inactive) | 8.83 µM (inactive) | 1.89 µM (inactive) | 3.3 µM (inactive)
COC1=CC(=O)c2nc3ccccc3c3ccnc1c23 | 1.81 µM (inactive) | 4.48 µM (inactive) | 5.05 µM (inactive) | 1.56 µM (inactive) | 1.83 µM (inactive) | 9.89 µM (inactive) | 2.22 µM (inactive) | 1.95 µM (inactive) | 12.5 µM (inactive) | 10.8 µM (inactive) | 5.48 µM (inactive) | 3.42 µM (inactive) | 0.434 µM (active) | 2.04 µM (inactive) | 3.56 µM (inactive) | 2.61 µM (inactive) | 7.8 µM (inactive) | 3.24 µM (inactive) | 4.4 µM (inactive)
C=C1C(=O)C2(C)OC2(C)C1C(=O)O (stereo not given) | > 100 µM (inactive) | > 100 µM (inactive) | > 100 µM (inactive) | > 100 µM (inactive) | > 100 µM (inactive) | > 100 µM (inactive) | > 100 µM (inactive) | > 100 µM (inactive) | > 100 µM (inactive) | > 100 µM (inactive) | > 100 µM (inactive) | > 100 µM (inactive) | > 100 µM (inactive) | > 100 µM (inactive) | > 100 µM (inactive) | > 100 µM (inactive) | > 100 µM (inactive) | > 100 µM (inactive) | > 100 µM (inactive)
C(=C\c1nccs1)/c1cccc(/C=C/c2nccs2)n1 | > 50 µM (inactive) | > 50 µM (inactive) | 34.8 µM (inactive) | > 50 µM (inactive) | > 50 µM (inactive) | 22 µM (inactive) | > 50 µM (inactive) | 18.8 µM (inactive) | > 50 µM (inactive) | > 50 µM (inactive) | > 50 µM (inactive) | > 50 µM (inactive) | > 50 µM (inactive) | > 50 µM (inactive) | 26.5 µM (inactive) | > 50 µM (inactive) | > 50 µM (inactive) | > 50 µM (inactive) | > 50 µM (inactive)
CCOC(=O)c1cc(Sc2ccc(N)c(C(=O)OCC)c2)ccc1N | 11.4 µM (inactive) | 3.3 µM (inactive) | 27.9 µM (inactive) | 6.95 µM (inactive) | 24 µM (inactive) | 12.3 µM (inactive) | 4.38 µM (inactive) | 13.2 µM (inactive) | 12.1 µM (inactive) | 16.7 µM (inactive) | 21.5 µM (inactive) | 10.4 µM (inactive) | 78.2 µM (inactive) | 24.8 µM (inactive) | 18.6 µM (inactive) | 11.5 µM (inactive) | 14.4 µM (inactive) | 28.8 µM (inactive) | 28 µM (inactive)
C=CCn1c(-c2ccc([N+](=O)[O-])cc2)cs/c1=N\C(P(=O)(O)O)P(=O)(O)O | > 100 µM (inactive) | > 100 µM (inactive) | > 100 µM (inactive) | > 100 µM (inactive) | > 100 µM (inactive) | > 100 µM (inactive) | > 100 µM (inactive) | > 100 µM (inactive) | > 100 µM (inactive) | > 100 µM (inactive) | > 100 µM (inactive) | > 100 µM (inactive) | > 100 µM (inactive) | > 100 µM (inactive) | > 100 µM (inactive) | > 100 µM (inactive) | > 100 µM (inactive) | > 100 µM (inactive) | > 100 µM (inactive)
CC(C)(C)c1ccc(S(=O)(=O)N2C(c3cccc(C4CC[C@@H](C(=O)O)N4S(=O)(=O)c4ccc(C(C)(C)C)cc4)c3)CC[C@H]2C(=O)O)cc1 (stereo not given in full) | 32.7 µM (inactive) | 45.8 µM (inactive) | 38.9 µM (inactive) | 33.1 µM (inactive) | 34.5 µM (inactive) | > 100 µM (inactive) | 38.7 µM (inactive) | 44 µM (inactive) | > 100 µM (inactive) | 71.9 µM (inactive) | 47 µM (inactive) | 57.4 µM (inactive) | 47.9 µM (inactive) | 28 µM (inactive) | 33.5 µM (inactive) | 30.1 µM (inactive) | > 100 µM (inactive) | 47.8 µM (inactive) | 33 µM (inactive)
